Test results reported in article PMC9863002, “Amino Derivatives of Diaryl Pyrimidines and Azolopyrimidines as Protective Agents against LPS-Induced Acute Lung Injury” (Molecules, 2023).

What was measured:
MTT cytotoxicity study = format: cell-based, C57bl/6j mice; settings: male, C57bl/6j, mouse; peritoneal macrophages, 24 h incubation
Procedure: (§1) Peritoneal macrophages (PM) were isolated from the peritoneal exudate of 30 male C57bl/6j mice. To accumulate PM, 1 mL of 3% peptone solution was injected intraperitoneally. After 3 days, the mice were euthanized by cervical dislocation. Cells of peritoneal exudate were obtained by aseptic washing of the abdominal cavity with 5 mL of sterile Hanks’s solution (+4–6 °C) without calcium and magnesium ions. The total number and viability of cells were assessed in a Goryaev counting chamber (Russia) with a 0.4% trypan blue staining (Sigma-Aldrich, St. Louis, MO, USA). The cell concentration was adjusted to 1.0 × 10^6 cells/mL in DMEM (Gibco, Waltham, MA, USA) supplemented with 2 mM L-glutamine (Gibco), 10% heat-inactivated fetal bovine serum (BioClot, Bavaria, Germany), 100 U/mL penicillin, and […] streptomycin (Gibco) and plated 200 µL/well in 96-well transparent plates (SPL Life Sciences Co., Ltd., Pocheon-si, Republic of Korea). After 2 h at 37 °C in a humidified atmosphere with 5% CO2, the wells were washed to remove non-adherent cells. After 24 h of incubation, 20 µL of the supernatants were substituted with 20 µL of solutions of test compounds, followed by E. coli O127:B8 LPS (100 ng/mL final concentration) after 30 min. The experiments were run in 3 independent replicates.
(§2) The activity of lactate dehydrogenase (LDH) in a cell culture medium served as a marker of membrane permeability and cell death. Aliquots of supernatants were taken after 24 h of inoculation with test compounds, mixed with 250 µL of […] NADH solution in 54 mM phosphate-buffered saline (pH 7.5). Then, 25 µL of a 6.48 mM pyruvate solution was added to the mixture. The optical density was followed at a wavelength of 340 nm for 20 min. The MTT test was performed 24 h after incubations of cells with tested compounds. Briefly, 20 µL of MTT solution was added to each well and incubated at 37 °C in a humidified atmosphere containing 5% CO2 for 4 h. The culture medium was removed, the cells were lysed, and formazan crystals were dissolved in 150 µL DMSO. The plates were shaken at room temperature for 10 min, and the optical density was measured in a microplate reader Infinite M200 PRO (Tecan, Grödig, Austria) at a wavelength of 565 nm.

peritoneal macrophages = assay: MTT cytotoxicity study; format: cell-based, C57bl/6j mice
Procedure: as §1, §2

[1] = system: phagocytic activity of C57bl/6j peritoneal macrophages; assay: Phagocytosis assay (yeast); format: cell-based, C57bl/6j mice; settings: 72 h of incubation
Procedure: Peritoneal macrophages of C57bl/6j mice were cultured in a 24-well plate at a volume of 500 µL/well (1 × 10^5 cells/mL) for 24 h. Test compounds or DMSO were added to wells in triplicate followed by 50 µL of 1% yeast suspension, and the plates were incubated for 40 min. After 24 or 72 h, the medium was removed. The cells were fixed with May–Grunwald methanol dye and stained with Azur–Eosin in Romanovsky’s modification for 45 min at room temperature, washed, air-dried, and analyzed using a microscope Mikmed-6 (Russia), equipped with a digital camera. The study was performed in three technical replicates and two series; 100 macrophages were processed in each sample to count the captured yeast cells. Macrophage spreading was assessed as a number of pseudopodia.

[2] = system: NO synthesis in LPS-stimulated primary murine peritoneal macrophages; assay: Inhibition of NO synthesis in LPS-stimulated macrophages (Griess); format: cell-based, C57bl/6j mice; settings: Mus musculus, Peritoneal macrophage; LPS-stimulated (100 ng/mL E. coli LPS) peritoneal macrophages, supernatants after 22 h; n.a. = not active
Procedure: as §1
The accumulation of the nitrite anion (a stable end product of NO decomposition) in supernatants was determined using a standard Griess reagent. Briefly, 50 µL of supernatants were collected 22 h after incubation of PM, and the test and control compounds were mixed with 50 µL of 1% sulfonamide in 2.5% H3PO4 and 50 µL of 0.1% N-(1-naphthyl) ethylenediamine in 2.5% H3PO4. After incubation at 23 °C for 10 min in an orbital shaker, the optical density was determined at a wavelength of 550 nm with a microplate reader Infinite M200 PRO (Tecan, Grödig, Austria).

[3] = system: IL-6 release in LPS-stimulated primary murine peritoneal macrophages; assay: Inhibition of IL-6 release in LPS-stimulated macrophages (ELISA); format: cell-based, C57bl/6j mice; settings: Mus musculus, Peritoneal macrophage; LPS-stimulated (100 ng/mL E. coli LPS) peritoneal macrophages; n.a. = not active
Procedure: as §1
(§3) The cell supernatant was collected and centrifuged at 1000× g for 20 min in a 2–16 PK centrifuge (Sigma, Osterode am Harz, Germany). The concentrations of IL-6 and TNF-alpha were determined by ELISA using commercial kits (Cloud-clone, Houston, TX, USA) with a microplate reader Infinite M200 PRO (Tecan, Grödig, Austria).

[4] = system: LPS-induced acute lung injury in C57BL/6J mice; assay: LPS-induced acute lung injury: histological study; format: in vivo; settings: 24 h after LPS; for Mean Injury Score (semi-quantitative morphological score of lung tissue damage): score 0-3, dexamethasone 5 mg/kg, 6e 30 mg/kg i.p. 1 h before oropharyngeal LPS
Procedure: (§4) The randomization of C57BL/6J mice was performed by body weight and motor activity in an open field test. […] The control animals received an equal volume of the vehicle. After 1 h, the mice were anesthetized with isoflurane inhalation until their breathing rate was decreased. The mice were suspended by the front incisors on an inclined surgical table, the tongue was pulled out with narrow curved tweezers, and 1 mg/mL of E. coli O127:B8 LPS (Sigma-Aldrich, St. Louis, MO, USA) in 1 mL/kg sterile saline was instilled into the back of the oropharynx. Intact control animals received an equal volume of sterile saline similarly.
(§5) The mice were anesthetized with 500 mg/kg chloral hydrate (Sigma-Aldrich, St. Louis, MO, USA) intraperitoneally 24 h after LPS administration. Blood was taken by intracardiac puncture in test tubes with heparin. The blood samples were centrifuged at 1000× g and 4 °C for 15 min on a 2–16 PK centrifuge (Sigma, Germany), and plasma was separated and stored at −80 °C until the assay. Thoracotomy was performed, the ligature was applied to the left bronchus and the trachea was cannulated with a 20 G needle. The right lung was washed twice with 0.7 mL of warm sterile saline. After combining aliquots, the bronchoalveolar lavage (BAL) was centrifuged at 800× g and 4 °C for 10 min. The supernatant was separated and stored at −80 °C until the assay. The residual cell pellet was resuspended in 50 µL of PBS for further study. The left lung was washed in saline and placed in 10% buffered formalin for morphological evaluation.
The sections were examined under a light microscope (Zeiss, Germany) by a double-blind method.

[5] = system: LPS-induced acute lung injury in C57BL/6J mice; assay: LPS-induced acute lung injury: open field test; format: in vivo; settings: 6e 30 mg/kg i.p., within 24 h after LPS; for motor activity in the open field test, in words: dexamethasone 5 mg/kg
Procedure: as §4
The animals were placed in the center of a round open field with an arena of 44 cm diameter and 32 cm wall height under 300 lux lighting. During 5 min of observation, horizontal motor activity, vertical motor activity, time spent in the central part, the number of exits to the central part, and exploratory activity parameters were recorded. Body temperature was determined rectally.

[6] = system: LPS-induced acute lung injury in C57BL/6J mice; assay: LPS-induced acute lung injury: biochemical markers of inflammation (IL-6, lung permeability index); format: in vivo; settings: 6e 30 mg/kg i.p., 24 h after LPS
Procedure: as §3, §4, §5
The concentration of total protein in BAL supernatants was determined spectrophotometrically with the pyrogallol red method, and the protein in the blood plasma was determined with the biuret method using commercial kits (Vital, Saint Petersburg, Russia) and bovine serum albumin as the standard. The lung permeability index was calculated as the protein concentration in the BAL to plasma ratio.

[7] = system: LPS-induced acute lung injury in C57BL/6J mice; assay: LPS-induced acute lung injury: leukocyte markers in blood, BAL and spleen; format: in vivo; settings: dexamethasone 5 mg/kg, 6e 30 mg/kg i.p.; 24 h after LPS
Procedure: as §4, §5
The total number of leukocytes in heparinized blood was determined after staining with methylene blue in Goryaev’s counting chamber at ×100 magnification. Smears of blood and BAL cell pellets were air-dried, fixed according to May–Grunwald for 3 min, and stained according to Romanowsky–Giemsa. After 30 min, the slides were washed, air-dried, and examined with an immersion objective (×1000 total magnification). On each slide, a total of at least 100 cells were calculated.

| Structure (SMILES) | CC50 at 24 h (MTT cytotoxicity study) [µM] | cytotoxicity in the MTT test, in words (peritoneal macrophages) | macrophage phagocytic activity (number of phagocytes), in words [1] | phagocytic capacity (number of yeast cells per macrophage), in words [1] | decrease of the mean number of phagocytosed particles ([1]; vs DMSO) [%] | IC50 [2] [µM] | IC50 [3] [µM] | decrease of the phagocytic index ([1]; vs DMSO) [%] | histological inflammatory lesions of the lung, in words ([4]; 6e 30 mg/kg i.p., H&E) | Mean Injury Score (semi-quantitative morphological score of lung tissue damage) [4] | exploratory behavior in the open field test, in words [5] | motor activity in the open field test, in words [5] | lung permeability index, in words ([6]; BAL to plasma protein ratio) | markers of inflammation and lung damage (IL-6 in BAL and plasma, alveolar vessel permeability), in words ([6]; dexamethasone 5 mg/kg) | plasma IL-6 concentration, in words ([6]; dexamethasone 5 mg/kg) | BAL: ratio of segmented neutrophils to monocytes, in words [7] | spleen lymphocytes (systemic immunosuppression), in words [7] | blood: recruitment of segmented neutrophils at the expense of lymphocytes, in words [7] |
| --- | --- | --- | --- | --- | --- | --- | --- | --- | --- | --- | --- | --- | --- | --- | --- | --- | --- | --- |
| Cc1nc(-c2ccccc2)cc(-c2ccccc2N)n1 [Compound 6a] | > 100 | pronounced cytotoxicity | preserve macrophage phagocytic activity | significantly suppressed macrophage phagocytic capacity | 35 |  |  |  |  |  |  |  |  |  |  |  |  |  |
| Cc1nc(-c2ccc(N)cc2)cc(-c2ccc(N)cc2)n1 [Compound 6e] | > 100 |  |  | retains a nearly normal phagocytic capacity |  | 16.2 | 18.4 | 32 | limited inflammatory lesions | 1.83 | improved | increased the motor activity of mice but was inferior to dexamethasone activity | preserving the vascular permeability at intact levels | normalized these markers of inflammation and lung damage | normalized it to intact levels | amelioration of this ratio | preserved normal content of spleen lymphocytes |  |
| Nc1ccc(-c2cc(-c3ccc(N)cc3)n3ncnc3n2)cc1 [Compound 7c] | 47.1 | pronounced cytotoxicity | preserve macrophage phagocytic activity | significantly suppressed macrophage phagocytic capacity | 63 | 15.2 | 2.2 |  |  |  |  |  |  |  |  |  |  |  |
| C[C@@H]1C[C@H]2[C@@H]3CCC4=CC(=O)C=C[C@]4(C)[C@@]3(F)[C@@H](O)C[C@]2(C)[C@@]1(O)C(=O)CO [Dexamethasone, reference compound] | 97.4 |  | reducing both the number of phagocytes | reducing both the number of phagocytes and their phagocytic capacity |  | 23.4 | 2.5 |  |  | 1.33 |  | corrected by dexamethasone |  |  | normalized it to intact levels |  | significantly decreased proliferation of spleen lymphocytes | corrected by dexamethasone |
